# Results taken from ChEMBL document CHEMBL3885861, “Open TG-GATES”.
# Species on record: Rattus norvegicus
# Assay: Open TG-GATES - Regimen: Single
# Type: toxicity, organism-based, Sprague-Dawley
# Set-up: regimen Single, gender Male, age 6 weeks
# Conditions: in vivo, po, route gavage; for APTT / Bas / Eos / Fbg / Hb / Ht / Lym / MCH / MCHC / MCV / Mono / Neu / PT / RBC / Ret / WBC / Plat: tissue Blood; for KIDNEY_L / KIDNEY_R / KIDNEY_TOTAL: tissue Kidney; for ALP / ALT / AST / BUN / CRE / Ca / DBIL / GLC / K / LDH / Na / PL / RALB / TBIL / TC / TG / TP / gamma-GTP / IP: tissue Plasma; for LIVER: tissue Liver
# [1] = 50 mg/kg, 3 h, dose level Middle
smiles,measurement,setting,value
Oc1ncnc2[nH]ncc12 [ALLOPURINOL],APTT,"15 mg/kg, 3 h, dose level Low",16.3 s
same,Bas,"15 mg/kg, 3 h, dose level Low",0%
same,Eos,"15 mg/kg, 3 h, dose level Low",1%
same,Fbg,"15 mg/kg, 3 h, dose level Low",209.6 mg/dL
same,Hb,"15 mg/kg, 3 h, dose level Low",13.9 g/dL
same,Ht,"15 mg/kg, 3 h, dose level Low",41.2%
same,Lym,"15 mg/kg, 3 h, dose level Low",80.4%
same,MCH,"15 mg/kg, 3 h, dose level Low",22 pg
same,MCHC,"15 mg/kg, 3 h, dose level Low",33.8%
same,MCV,"15 mg/kg, 3 h, dose level Low",65 fL
same,Mono,"15 mg/kg, 3 h, dose level Low",7.4%
same,Neu,"15 mg/kg, 3 h, dose level Low",11.2%
same,PT,"15 mg/kg, 3 h, dose level Low",12.5 s
same,RBC,"15 mg/kg, 3 h, dose level Low",636 x10_4/ul
same,Ret,"15 mg/kg, 3 h, dose level Low",8.4%
same,WBC,"15 mg/kg, 3 h, dose level Low",99.2 x10_2/uL
same,KIDNEY_L,"15 mg/kg, 3 h, dose level Low",1 g
same,KIDNEY_R,"15 mg/kg, 3 h, dose level Low",1 g
same,KIDNEY_TOTAL,"15 mg/kg, 3 h, dose level Low",2 g
same,ALP,"15 mg/kg, 3 h, dose level Low",884.4 IU/L
same,ALT,"15 mg/kg, 3 h, dose level Low",35.4 IU/L
same,AST,"15 mg/kg, 3 h, dose level Low",64.4 IU/L
same,BUN,"15 mg/kg, 3 h, dose level Low",12.4 mg/dL
same,CRE,"15 mg/kg, 3 h, dose level Low",0.5 mg/dL
same,Ca,"15 mg/kg, 3 h, dose level Low",11.3 mg/dL
same,DBIL,"15 mg/kg, 3 h, dose level Low",0.086 mg/dL
same,GLC,"15 mg/kg, 3 h, dose level Low",183.8 mg/dL
same,K,"15 mg/kg, 3 h, dose level Low",4.9 meq/L
same,LDH,"15 mg/kg, 3 h, dose level Low",115.4 IU/L
same,Na,"15 mg/kg, 3 h, dose level Low",139.2 meq/L
same,PL,"15 mg/kg, 3 h, dose level Low",132.8 mg/dL
same,RALB,"15 mg/kg, 3 h, dose level Low",3.7 g/dL
same,TBIL,"15 mg/kg, 3 h, dose level Low",0.4 mg/dL
same,TC,"15 mg/kg, 3 h, dose level Low",73.4 mg/dL
same,TG,"15 mg/kg, 3 h, dose level Low",54.6 mg/dL
same,TP,"15 mg/kg, 3 h, dose level Low",5.5 g/dL
same,gamma-GTP,"15 mg/kg, 3 h, dose level Low",1.6 IU/L
same,TERMINAL_BW,"15 mg/kg, 6 h, dose level Low",209.5 g
same,APTT,"15 mg/kg, 6 h, dose level Low",16.8 s
same,Bas,"15 mg/kg, 6 h, dose level Low",0%
same,Eos,"15 mg/kg, 6 h, dose level Low",0.4%
same,Fbg,"15 mg/kg, 6 h, dose level Low",206.8 mg/dL
same,Hb,"15 mg/kg, 6 h, dose level Low",13.6 g/dL
same,Ht,"15 mg/kg, 6 h, dose level Low",40.5%
same,Lym,"15 mg/kg, 6 h, dose level Low",79%
same,MCH,"15 mg/kg, 6 h, dose level Low",21.8 pg
same,MCHC,"15 mg/kg, 6 h, dose level Low",33.5%
same,MCV,"15 mg/kg, 6 h, dose level Low",65.3 fL
same,Mono,"15 mg/kg, 6 h, dose level Low",6.2%
same,Neu,"15 mg/kg, 6 h, dose level Low",14.2%
same,PT,"15 mg/kg, 6 h, dose level Low",12.4 s
same,Plat,"15 mg/kg, 6 h, dose level Low",109.1 x10_4/uL
same,RBC,"15 mg/kg, 6 h, dose level Low",620.2 x10_4/ul
same,Ret,"15 mg/kg, 6 h, dose level Low",8.1%
same,WBC,"15 mg/kg, 6 h, dose level Low",101.3 x10_2/uL
same,KIDNEY_L,"15 mg/kg, 6 h, dose level Low",1 g
same,KIDNEY_R,"15 mg/kg, 6 h, dose level Low",1 g
same,KIDNEY_TOTAL,"15 mg/kg, 6 h, dose level Low",2 g
same,LIVER,"15 mg/kg, 6 h, dose level Low",9.6 g
same,ALP,"15 mg/kg, 6 h, dose level Low",695 IU/L
same,ALT,"15 mg/kg, 6 h, dose level Low",30 IU/L
same,AST,"15 mg/kg, 6 h, dose level Low",58 IU/L
same,BUN,"15 mg/kg, 6 h, dose level Low",11 mg/dL
same,CRE,"15 mg/kg, 6 h, dose level Low",0.5 mg/dL
same,Ca,"15 mg/kg, 6 h, dose level Low",11.4 mg/dL
same,DBIL,"15 mg/kg, 6 h, dose level Low",0.024 mg/dL
same,GLC,"15 mg/kg, 6 h, dose level Low",187 mg/dL
same,IP,"15 mg/kg, 6 h, dose level Low",10.1 mg/dL
same,K,"15 mg/kg, 6 h, dose level Low",4.8 meq/L
same,LDH,"15 mg/kg, 6 h, dose level Low",74.8 IU/L
same,Na,"15 mg/kg, 6 h, dose level Low",138.4 meq/L
same,PL,"15 mg/kg, 6 h, dose level Low",126.6 mg/dL
same,RALB,"15 mg/kg, 6 h, dose level Low",3.7 g/dL
same,TBIL,"15 mg/kg, 6 h, dose level Low",0.3 mg/dL
same,TC,"15 mg/kg, 6 h, dose level Low",67.6 mg/dL
same,TG,"15 mg/kg, 6 h, dose level Low",60.8 mg/dL
same,TP,"15 mg/kg, 6 h, dose level Low",5.5 g/dL
same,gamma-GTP,"15 mg/kg, 6 h, dose level Low",1 IU/L
same,TERMINAL_BW,"15 mg/kg, 9 h, dose level Low",204 g
same,APTT,"15 mg/kg, 9 h, dose level Low",16.6 s
same,Bas,"15 mg/kg, 9 h, dose level Low",0%
same,Eos,"15 mg/kg, 9 h, dose level Low",1.2%
same,Fbg,"15 mg/kg, 9 h, dose level Low",221.6 mg/dL
same,Hb,"15 mg/kg, 9 h, dose level Low",13.6 g/dL
same,Ht,"15 mg/kg, 9 h, dose level Low",40.7%
same,Lym,"15 mg/kg, 9 h, dose level Low",66.4%
same,MCH,"15 mg/kg, 9 h, dose level Low",21.7 pg
same,MCHC,"15 mg/kg, 9 h, dose level Low",33.4%
same,MCV,"15 mg/kg, 9 h, dose level Low",65 fL
same,Mono,"15 mg/kg, 9 h, dose level Low",11.8%
same,Neu,"15 mg/kg, 9 h, dose level Low",20.4%
same,PT,"15 mg/kg, 9 h, dose level Low",12.3 s
same,RBC,"15 mg/kg, 9 h, dose level Low",626.6 x10_4/ul
same,Ret,"15 mg/kg, 9 h, dose level Low",7.9%
same,WBC,"15 mg/kg, 9 h, dose level Low",92.7 x10_2/uL
same,KIDNEY_L,"15 mg/kg, 9 h, dose level Low",1 g
same,KIDNEY_R,"15 mg/kg, 9 h, dose level Low",1 g
same,KIDNEY_TOTAL,"15 mg/kg, 9 h, dose level Low",1.9 g
same,LIVER,"15 mg/kg, 9 h, dose level Low",9.1 g
same,ALP,"15 mg/kg, 9 h, dose level Low",837 IU/L
same,ALT,"15 mg/kg, 9 h, dose level Low",27.6 IU/L
same,AST,"15 mg/kg, 9 h, dose level Low",58.8 IU/L
same,BUN,"15 mg/kg, 9 h, dose level Low",13 mg/dL
same,CRE,"15 mg/kg, 9 h, dose level Low",0.4 mg/dL
same,DBIL,"15 mg/kg, 9 h, dose level Low",0.042 mg/dL
same,GLC,"15 mg/kg, 9 h, dose level Low",198.8 mg/dL
same,K,"15 mg/kg, 9 h, dose level Low",4.8 meq/L
same,LDH,"15 mg/kg, 9 h, dose level Low",74.6 IU/L
same,Na,"15 mg/kg, 9 h, dose level Low",138.6 meq/L
same,PL,"15 mg/kg, 9 h, dose level Low",129.8 mg/dL
same,RALB,"15 mg/kg, 9 h, dose level Low",3.8 g/dL
same,TBIL,"15 mg/kg, 9 h, dose level Low",0.3 mg/dL
same,TC,"15 mg/kg, 9 h, dose level Low",69.2 mg/dL
same,TG,"15 mg/kg, 9 h, dose level Low",53.2 mg/dL
same,TP,"15 mg/kg, 9 h, dose level Low",5.7 g/dL
same,gamma-GTP,"15 mg/kg, 9 h, dose level Low",1.4 IU/L
same,TERMINAL_BW,"15 mg/kg, 24 h, dose level Low",224.8 g
same,APTT,"15 mg/kg, 24 h, dose level Low",16.1 s
same,Bas,"15 mg/kg, 24 h, dose level Low",0%
same,Eos,"15 mg/kg, 24 h, dose level Low",1.2%
same,Fbg,"15 mg/kg, 24 h, dose level Low",213.8 mg/dL
same,Hb,"15 mg/kg, 24 h, dose level Low",13.6 g/dL
same,Ht,"15 mg/kg, 24 h, dose level Low",40.8%
same,Lym,"15 mg/kg, 24 h, dose level Low",79.4%
same,MCH,"15 mg/kg, 24 h, dose level Low",21.8 pg
same,MCHC,"15 mg/kg, 24 h, dose level Low",33.3%
same,MCV,"15 mg/kg, 24 h, dose level Low",65.4 fL
same,Mono,"15 mg/kg, 24 h, dose level Low",7.2%
same,Neu,"15 mg/kg, 24 h, dose level Low",12.4%
same,PT,"15 mg/kg, 24 h, dose level Low",12.2 s
same,Plat,"15 mg/kg, 24 h, dose level Low",113.4 x10_4/uL
same,RBC,"15 mg/kg, 24 h, dose level Low",623 x10_4/ul
same,Ret,"15 mg/kg, 24 h, dose level Low",7.9%
same,WBC,"15 mg/kg, 24 h, dose level Low",93.3 x10_2/uL
same,KIDNEY_L,"15 mg/kg, 24 h, dose level Low",1 g
same,KIDNEY_R,"15 mg/kg, 24 h, dose level Low",1 g
same,KIDNEY_TOTAL,"15 mg/kg, 24 h, dose level Low",2 g
same,ALP,"15 mg/kg, 24 h, dose level Low",884.8 IU/L
same,ALT,"15 mg/kg, 24 h, dose level Low",33.2 IU/L
same,AST,"15 mg/kg, 24 h, dose level Low",61.6 IU/L
same,BUN,"15 mg/kg, 24 h, dose level Low",17.8 mg/dL
same,CRE,"15 mg/kg, 24 h, dose level Low",0.5 mg/dL
same,DBIL,"15 mg/kg, 24 h, dose level Low",0.024 mg/dL
same,GLC,"15 mg/kg, 24 h, dose level Low",187.4 mg/dL
same,IP,"15 mg/kg, 24 h, dose level Low",8 mg/dL
same,K,"15 mg/kg, 24 h, dose level Low",5 meq/L
same,LDH,"15 mg/kg, 24 h, dose level Low",85.2 IU/L
same,Na,"15 mg/kg, 24 h, dose level Low",138.8 meq/L
same,PL,"15 mg/kg, 24 h, dose level Low",149.8 mg/dL
same,RALB,"15 mg/kg, 24 h, dose level Low",3.6 g/dL
same,TBIL,"15 mg/kg, 24 h, dose level Low",0.3 mg/dL
same,TC,"15 mg/kg, 24 h, dose level Low",78 mg/dL
same,TG,"15 mg/kg, 24 h, dose level Low",91.4 mg/dL
same,TP,"15 mg/kg, 24 h, dose level Low",5.7 g/dL
same,gamma-GTP,"15 mg/kg, 24 h, dose level Low",1.8 IU/L
same,TERMINAL_BW,[1],210.9 g
same,APTT,[1],16.6 s
same,Bas,[1],0%
